Data on two compounds can be found in patent US20160151347A1, “PHARMACEUTICAL COMPOUNDS” (ISIS Innovation LTD, priority 2013, published 2016).

Series [1] has as its system human patient with sinus tachycardia. The series can be described thus: Case report: heart rate (ECG) of a human patient with sinus tachycardia and systemic lupus erythematosus. From the text: The heart rate of a mammal is defined as the number of heart beats per unit of time, usually heart beats per minute (bpm). The heart rate or number of heart beats per unit of time can be determined using methods known in the art. Such a method may involve the simple measurement of a mammal's pulse. Alternatively, heart rate may be measured through the use of an electrocardiograph (ECG), which is readily available to those skilled in the art. Such a method involves counting the number of QRS complexes in the ECG.
The patient was a person with no previous history of cardiac related disease.
Furthermore, the glyceryl trinitrate spray was used whenever angina symptoms were experienced.
In June 2009, the patient was diagnosed with systemic lupus erythematosus.
On Aug. […] On Aug. […] On Sep.

Series [2] has as its system mouse atrial tissue preparations with intact sino-atrial node. Kind of series: Spontaneous beating rate of isolated mouse atrial preparations (tension transducer). Format: cell-based. As to conditions: for reduction in beating rate from control: n=7 (Example 5); for decrease in spontaneous frequency: 30 minute exposure, n=6 (Example 3). From the text: Male CD-1 mice (7-9 weeks of age) were terminated by concussion followed by dislocation. The chest cavity was opened and heparinised solution (10 U/mL) applied around the heart to minimise clotting during dissection. The heart was rapidly excised and placed in warm, oxygenated modified Tyrode solution (PSS, in mM: NaCl 125, NaHCO3 25, KCl 5.4, NaH2PO4 1.2, MgCl2 1, glucose 5.5, CaCl2 1.8, pH to 7.4 with NaOH and oxygenated with 95% O2/5% CO2), the ventricular tissue discarded and the sino-atrial node region cleared of any overlying tissue.
Loops of thin suture were tied to the lateral edges of each atrium by directly knotting around a small area of the tissue, taking care to avoid contact with the node itself. One loop was anchored to a hook, which also provided oxygenation to the organ bath, and the other tied to a tension transducer. The preparation was hung in an organ bath filled with PSS, maintained at 37° C. Tension data was digitised using a PowerLabs bridge amplifier and recorded on Chart5 software (all from ADlnstruments, UK). Beating rate was calculated in real-time from the upstroke of the tension signal using the Chart5 Ratemeter function.
Spontaneously-beating atrial preparations were allowed to stabilise for 20 minutes, solution was exchanged for fresh, warmed, PSS and the preparation was again allowed to stabilise for 30 minutes. Drugs were added directly to the organ bath by pipette and allowed to equilibrate for 30 minutes before rate data was sampled.
Male CD-1 mice (7-9 weeks of age) were terminated by concussion followed by dislocation.
The chest cavity was opened and heparinised solution (10 U/mL) applied around the heart to minimise clotting during dissection. The heart was rapidly excised and placed in warm, oxygenated modified Tyrode solution (PSS, in mM: NaCl 125, NaHCO3 25, KCl 5.4, NaH2PO4 1.2, MgCl2 1, glucose 5.5, CaCl2 1.8, pH to 7.4 with NaOH and oxygenated with 95% O2/5% CO2), the ventricular tissue discarded and the sino-atrial node region cleared of any overlying tissue.

In another series the test system is C57BL/6 mice. Also on record: species or system mouse. As to conditions: in vivo. From the text: Automated non-invasive tail cuff plethysmography (Visitech 2000, Visitech, USA) was used to determine systolic blood pressure in response to HCQ in drinking water when compared to a control group (n=9/group). C57BL/6 mice were habituated for 5 days and then underwent measurements alternate day for 28 days. All measurements were taken in the morning at the same time of day. Twenty measurements were taken, the first 10 discarded and an average of valid recordings then taken for analysis.
We assessed safety by performing long term feeding of mice at 100 mg/kg daily for 28 days with HCQ (FIG. 9) and measuring blood pressure by tail cuff plethysmography.

For the next series, the system named is If current. The series can be described thus: If current recordings, perforated patch voltage clamp in single isolated sinoatrial node cells. Format: cell-based, guinea pig. As to conditions: for reduction in If current: 1 μM, 5 min exposure, n=7.
Series [3] concerns isolated guinea-pig sino-atrial node cells. Kind of series: Action potential recordings, current clamp in single isolated sino-atrial node cells. The class given is cell-based. As to conditions: 1 μM. As for the experimental part: Male guinea pigs (350-500 g) were sacrificed by concussion followed by cervical dislocation. The heart was rapidly excised and encouraged to beat several times in heparin-containing zero-Ca ^2+ modified Tyrode solution to prevent clotting (10 U/mL). The heart was mounted via the aorta on a constant pressure Langendorff system for retrograde perfusion, with solutions maintained at body temperature. After 2 minutes initial wash with zero Ca ^2+ solution (in mM: NaCl 136, KCI 5.4, NaHCO3 12, Na^+ pyruvate 1, NaH2PO4 1, MgCl2 1, EGTA 0.04, glucose 5; gassed with 95% O2/5% CO2 to maintain a pH of 7.4), perfusion was switched to re-circulation with collagenase solution (same as zero Ca^2+ but with 27 mg collagenase/50 mL—type II Worthington, Worthington Biochemical Corp., Lakewood, N.J., USA—0.1 mM CaCl2 and no EGTA).
Following 25 minutes enzymatic digestion, the right atrium, vena-cavae and pulmonary artery were dissected away from the ventricles. The right atrium was pinned in a Sylgard-coated bath, opened by anterior incision, and the SA node identified from anatomical features and tissue appearance. Under a binocular microscope, the SA node appears as a translucent, smooth, white structure in contrast to the thicker, pinker surrounding atrial tissue. The SA node was dissected into thin strips 2×5 mm) and stored in a high potassium medium (in mM: KCI 70, MgCl2 5, K^+ glutamine 5, taurine 20, EGTA 0.04, succinic acid 5, KH2PO4 20, HEPES 5, glucose 10; pH to 7.2 with KOH). Isolation of single SA node myocytes was carried out by gentle trituration.
For all single cell experiments, cells were transferred to a glass coverslip and superfused with oxygenated PSS at 34 ±1° C. using a gravity-fed system running at 2-3 mL/min. HCQ was applied via superfusion, with an electronic switching mechanism resulting in full solution exchange over a period of less than 20 seconds.
Perforated patch clamp recordings were carried out using electrodes pulled from filamented borosilicate glass capillary tubing (GC100 F, Harvard Apparatus Ltd, Kent) using a two-stage vertical puller (Narishige, Japan). […]
Micropipettes were mounted in a Perspex holder containing an Ag/AgCl wire and connected to a CV203BU headstage. All recordings were carried out using an AxoPatch 200B microelectrode system, digitised with a Digidata 1200 A-D converter, and recorded using PCIamp7 software at a sampling rate of 2 kHz (All products in this paragraph, Axon Instruments). […]
Action potentials were recorded from single guinea pig SA node cells under current clamp conditions using the AxoPatch200B microelectrode system and rate measured in Hz using spectral analysis. […]

Another series deals with male Sprague-Dawley rats. Kind of series: Rat in-vivo blood pressure and heart rate study (anaesthetised, carotid cannula). Here is the method: Data was acquired (200 Hz) in real time using a Biopac M100 system connected to a Dell P4 computer using AcqKnowledge software. Heart rate was triggered from the arterial blood pressure signal. Intravenous access was gained via the left external jugular vein using a 3 F cannula. After an equilibration period of at least 10 minutes, hydoxychloroquine (dissolved in sterile normal saline for injection and warmed to body temperature) was given as intravenous boluses over 30 seconds (1-30 mg/kg). […] Once a stable response had been reached, measurements were taken as an average over 30 seconds. On completion of the protocol, animals were euthanised with intraperitoneal injection of pentobarbitone. […] Data was acquired (200 Hz) in real time using a Biopac M100 system connected to a Dell P4 computer using AcqKnowledge software. Heart rate was triggered from the arterial blood pressure signal. Intravenous access was gained via the left external jugular vein using a 3 F cannula. After an equilibration period of at least 10 minutes, hydoxychloroquine (dissolved in sterile normal saline for injection and warmed to body temperature) was given as intravenous boluses over 30 seconds (1-30 mg/kg). […] Once a stable response had been reached, measurements were taken as an average over 30 seconds. On completion of the protocol, animals were euthanised with intraperitoneal injection of pentobarbitone.

[4] abbreviates: 3 μM, 5 mins superfusion, n=4 cells.

Consider `CC(C)NCC(O)COc1ccc(CC(N)=O)cc1` (centres unmarked) [atenolol], for which, in series [1] (patient on atenolol), the side effects experienced result was “tiredness associated with the onset of use of atenolol, low blood pressure and increased effects of Raynaud's syndrome”. Further, the heart rate in series [1] (patient treated with atenolol and a glyceryl trinitrate spray, about 118 bpm at rest before) is given as 70-80 bpm.
As to `CCN(CCO)CCCC(C)Nc1ccnc2cc(Cl)ccc12` (centres unmarked) [hydroxychloroquine, 2-[{4-[(7-chloroquinolin-4-yl)amino]pentyl}(ethyl)amino]ethanol], the “reduction in beating rate from control” value in series [2] (3 μM cumulative dose) was found to be 9±3%; in series [2] (10 μM cumulative dose), 15±2%. Also, the “decrease in spontaneous frequency” value is 11% in series [2] (3 μM) and 20% in series [2] (10 μM). Further, the heart rate in series [1] (200 mg daily resumed Aug. 4, 2010, measured Sep. 16, 2010) is 80-88 bpm; in series [1] (200 mg to 400 mg Plaquenil per day, Atenolol completely ceased), 70-80 bpm. In series [1] (200 mg daily, August 2010 until December 2010), the stable heart rate is reported as 70-85 bpm. Also, the recorded heart rate in series [1] (dose halved to 100 mg per day, ECG Aug. 3, 2010) stood at 109 bpm. Also, the “systolic blood pressure, baseline” value with C57BL/6 mice (C57BL/6, mouse) came out at 109.7±2.89 mmHg. The compound also displayed a start weight with C57BL/6 mice (mouse) of 27.72 ± 0.36 g. Besides, the results for the “reduction in If current” value in the series on If current (−80 mV voltage step) and in the series on If current (−100 mV step) were 20+/−4% and 12+/−4%, respectively. Also, the “maximal conductance of I(f)” value with If current (setting [4]) is on record as 85±6 % of control. For the same compound, in the series with If current (setting [4]), the “voltage of half-activation (V50) and slope of conductance” value was “unchanged”. The “reduction in cellular beating rate (action potential firing rate)” value in series [3] (3 mins of exposure, n=6) is reported as 10±3%. Also, the “lengthening in the time taken to reach 50% repolarisation” value in series [3] (5 min superfusion) is given as 11+/-3%. Further, the “reduction in the slope of spontaneous diastolic depolarization” value in series [3] (5 min superfusion) was 25+/−3%. For the same compound, the “reduction in rate of spontaneous action potential generation (cellular beating rate)” value in series [3] (5 min superfusion, n=6, listed as HCQ) came out at 17±6%. For the same compound, the “cumulative dose at which a significant transient reduction in heart rate is observed” value in the series with male Sprague-Dawley rats (cumulative intravenous doses) is not below 7.5 mg/kg. Further, the “effect on blood pressure at low doses” value in the series with male Sprague-Dawley rats (low intravenous doses (1-15 mg), n=6) was “without an effect on blood pressure”. Further, the “effect on blood pressure at very high doses” value in the series with male Sprague-Dawley rats (very high intravenous doses) was “an effect on blood pressure (which recovers over time)”.
